The assay deals with HMPV clinical isolate A2 strain TN 94-49. The assay can be described thus: HMPV antiviral assay, Method 2 (LLC-MK2 cells with CP-100-356, ATP-Lite). The following applies: human metapneumovirus. It is filed as cell-based. A digest of the protocol:
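EC50 comes from a four-parameter fit of percent cell viability (ATP-Lite, normalized to virus-only and cell-only wells) after 7 days at 37 °C. Infection used HMPV A2 TN 94-49 at MOI 0.16 in LLC-MK2 cells, with 2 μM P-gp inhibitor CP-100-356 and 2 μg/mL TPCK-trypsin final; dose range 200 nM top, 2.5-fold, 10 points, duplicate.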

[1] abbreviates: hMPV A2 TN/94-49, LLC-MK2 cells with CP-100-356, Method 2.
Setting [2] is: 168 h, hMPV A2 TN/94-49, LLC-MK2 cells with 4 μM CP-100-356, 7 days, ATP-Lite.

A value given as a limit tells only on which side of the number the result lay.

Usually EC50 stands for the midpoint of the concentration-response curve. `COc1cc([C@](O)(CNC(=O)c2cc(OC)c3nn(C4CC4)cc3c2)c2cc3c(c(-c4cc(Cl)c(F)cc4F)n2)OC[C@]3(C)C(N)=O)cc(F)n1` [Example 503] showed an EC50 under setting [1] of under 200 nM.

Take `COc1cc(C(=O)NC[C@@](O)(c2cccc(F)n2)c2cc3c(c(-c4cc(Cl)c(F)cc4F)n2)OC[C@]3(C)C(N)=O)cc2cc(C3CC3)nn12` [Example 206]: under setting [1], the EC50 is under 200 nM.

Consider `COc1cc(C(=O)NC[C@](O)(c2cc3c(c(-c4cccc(F)c4Cl)n2)OC[C@]3(C)C(N)=O)C2CC2)cc2cc(C3CC3)nn12` [Example 632], for which the EC50 under setting [2] is under 200 nM.

The molecule `COc1cccc2c1ccn2-c1nc([C@@](O)(CNC(=O)c2cc(OC)c3nn(C4CC4)cc3c2)C2CC2)cc2c1OC[C@]2(C)C(N)=O` [Example 839] displayed a 50% effective concentration (EC50) under setting [2] of under 200 nM.

The molecule `COc1cc(C(=O)NC[C@](O)(c2cc3c(c(-c4ccnc(C(F)(F)F)c4Cl)n2)OC[C@]3(C)C(N)=O)C2CC2)cn2cc(C3CC3)nc12` [Example 580] gave an EC50 under setting [1] of under 200 nM.

Regarding `COc1nccc(-c2nc([C@@](O)(CNC(=O)c3cc(OC)n4nc(C5CC5)cc4c3)C3(F)CC3)cc3c2OC[C@]3(C)C(N)=O)c1Cl` [Example 656], under setting [2], the EC50 is under 200 nM.

In turn, `Cc1nccc(-c2nc([C@@](O)(CNC(=O)c3cc(OC4CC4)c4nn(C(F)F)cc4c3)C3CC3)cc3c2OC[C@]3(C)C(N)=O)c1Cl` [Example 601] displayed an EC50 under setting [1] of under 200 nM.

Under setting [1], `COc1cc(C(=O)NC[C@](O)(c2cc3c(c(-c4ccnc(F)c4F)n2)OC[C@]3(C)C(N)=O)C2CC2)cc2cn(C3CC3)nc12` [Example 381] came in with an EC50 of under 200 nM.

In turn, `Cc1nccc(-c2nc([C@@](O)(CNC(=O)c3cc(OC4CC4)c4nn(C(F)F)cc4c3)c3cccc(F)c3)cc3c2OC[C@]3(C)C(N)=O)c1Cl` [Example 604] yielded a half-maximal effective concentration (EC50) under setting [1] of under 200 nM.

Under setting [1], `COc1cc(C(=O)NC[C@](O)(c2cc3c(c(-c4ccnc(Cl)c4Cl)n2)OC[C@]3(C)C(N)=O)C2CC2)cc2cn(C3CC3)nc12` [Example 387] returned an EC50 of under 200 nM.

Molecule `COc1cc(C(=O)NC[C@](O)(c2cc3c(c(-c4cc(Cl)c(F)cc4F)n2)OC[C@]3(C)C(N)=O)C2(C)CC2)cc2cn(C3CC3)nc12` [Example 516] yielded an EC50 under setting [1] of under 200 nM.

On to `COc1cc(-c2nc([C@@](O)(CNC(=O)c3cc(OC)c4nc(C5CC5)oc4c3)c3ccccc3)cc3c2OC[C@]3(C)C(N)=O)c(F)cn1` [Example 638], for which the EC50 under setting [2] is under 200 nM.

Under setting [1], `COc1nccc(-c2nc([C@@](O)(CNC(=O)c3cc(OC)c4nc(C5CC5)oc4c3)c3cccc(F)c3)cc3c2OC[C@]3(C)C(N)=O)c1Cl` [Example 560] had an EC50 of under 200 nM.

As to `COc1cccc([C@](O)(CNC(=O)c2cc(OC)c3nn(C4CC4)cc3c2)c2cc3c(c(-c4cccc(Cl)c4Cl)n2)OC[C@]3(C)C(N)=O)n1` [Example 496], under setting [1], the EC50 was under 200 nM.

As for `COc1cc(C(=O)NC[C@@](O)(c2cccc(F)n2)c2cc3c(c(-c4cc(Cl)c(F)cc4F)n2)OC[C@]3(C)C(N)=O)cn2cc(C3CC3)nc12` [Example 154], under setting [1], the EC50 is under 200 nM.

Under setting [1], `COc1cc(C(=O)NC[C@](O)(c2cc3c(c(-c4ccnc(Cl)c4Cl)n2)OC[C@]3(C)C(N)=O)C2(F)CC2)cc2sc(C)nc12` [Example 524] yielded an EC50 of under 200 nM.

For the molecule `COc1cc(C(=O)NC[C@@](O)(c2ccc(F)cc2)c2cc3c(c(-c4ccnc(C(F)(F)F)c4F)n2)OC[C@]3(C)C(N)=O)cc2cn(C(F)F)nc12` [Example 572], the EC50 under setting [1] is under 200 nM.

Under setting [1], `COc1cc(C(=O)NC[C@](O)(c2cc3c(c(-c4ccnc(Cl)c4Cl)n2)OC[C@]3(C)C(N)=O)C2(F)CC2)cn2cc(C3(F)CC3)nc12` [Example 522] had an EC50 of under 200 nM.

On to `C[C@]1(C(N)=O)COc2c1cc([C@@](O)(CNC(=O)c1cc(F)c3nn(C4CC4)cc3c1)c1ccccc1)nc2-c1cc(Cl)c(F)cc1F` [Example 100], for which the EC50 under setting [1] is under 200 nM.

On to `COc1cc(C(=O)NC[C@@](O)(c2cccc(F)n2)c2cc3c(c(-c4cc(Cl)c(F)cc4F)n2)OC[C@]3(C)C(N)=O)cc2cn(C3CC3)nc12` [Example 203], for which, under setting [1], the EC50 was under 200 nM.

(Values after patent US20240368174A1, “Antiviral Heterocyclic Compounds” (Enanta Pharmaceuticals, Inc., priority 2023, published 2024).)
